Test results reported in patent US20230045616A1, “CANCER TREATMENT METHOD AND MEDICINE” (Nonprofit Organization North East Japan Study Group, priority 2019, published 2023).
Entries after “also recorded” stand apart in the source; their conditions may differ.

System: lung cancer
Assay: CT / X-ray images of cancer tissue in treated lung cancer patients (case reports)
Type: in vivo, human

Substance: nivolumab
- cancer tissue in CT images after the treatment (Example 3 patient, nivolumab after administration of Extract Z, FIG. 5): almost eliminated
- primary foci and lymph node metastasis (Example 23 patient, nivolumab alone 240 mg every 2 weeks from September, 2017, progression observed on Nov. 6, 2020): primary foci were almost eliminated and metastasis to the lymph nodes was eliminated
- swelling in the cervical lymph node (CT images) (nivolumab 240 mg every 2 weeks continued after radiation of 30 Gy/10 fr to the cervical lymph node, stage IVb lung cancer patient): suppressed (April and October, 2019) and partially remitted; also recorded: suppressed (May, 2019) and partially remitted
- swelling in the cervical lymph node to which cancer had been metastasized (CT images) (nivolumab alone, 240 mg per dose i.v. drip at an interval of 2 weeks, stage IVb lung cancer patient without driver gene mutation): progressed
